Laboratory results as given in patent publication US20250188059A1, “NOVEL COMPOUND AND USE THEREOF FOR INHIBITING CHECKPOINT KINASE 2” (ARUM THERAPEUTICS INC, priority 2022, published 2025).
Where two headings read alike, the source gives them in different places.

Legend:
[1] = tested on: human breast cancer cell line MCF-7; assay: Cancer cell growth inhibition test (CellTiter-Glo); type: cell-based; conditions: MCF-7, 72 hours
Experimental: The human breast cancer cell line MCF-7 was treated with trypsin and harvested. The number of cells was counted, and about 3000 cells/80 μl per well were inoculated into a 96 well plate (Corning) and then incubated in a 37° C. incubator for 24 hours. Thereafter, the example compounds were diluted in a culture solution at various concentrations, and each well was treated with 20 μl and stored in a cell culture incubator for 72 hours. In the case of the group administered in combination, the example compounds and cisplatin or doxorubicin were diluted in a culture solution at various concentrations, and each well was treated with 20 μl. After 72 hours, each well was treated with 30 μl of CellTiter-Glo solution (Promega), and the luminescence was read on a Victor3 multi label reader (PerkinElmer).
Relative viability (%)=(value of each test well/value of well treated with DMSO alone)×100
The results obtained for each concentration for each example compound were the average values obtained from three wells, and PRIZM software was used for analysis of the results.

Chk1 kinase = Chk1 kinase (Homo sapiens (Human), UniProt O14757); assay: Chk1 kinase inhibitory activity (LanthaScreen TR-FRET); type: biochemical; conditions: graded
Chk1 kinase, sequence (O14757 whole entry): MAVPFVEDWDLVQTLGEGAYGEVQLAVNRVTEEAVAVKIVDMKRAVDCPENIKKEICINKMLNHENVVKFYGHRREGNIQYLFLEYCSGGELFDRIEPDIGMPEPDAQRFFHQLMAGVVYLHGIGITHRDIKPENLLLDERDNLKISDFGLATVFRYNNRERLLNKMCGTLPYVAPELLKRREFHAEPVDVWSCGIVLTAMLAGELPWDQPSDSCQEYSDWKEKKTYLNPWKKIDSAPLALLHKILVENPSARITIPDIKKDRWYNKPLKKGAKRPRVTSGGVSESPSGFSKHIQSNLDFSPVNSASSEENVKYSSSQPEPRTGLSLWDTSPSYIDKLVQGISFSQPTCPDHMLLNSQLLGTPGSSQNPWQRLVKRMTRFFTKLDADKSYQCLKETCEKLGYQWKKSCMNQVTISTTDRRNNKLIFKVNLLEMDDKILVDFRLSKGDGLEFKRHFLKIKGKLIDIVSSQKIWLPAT
Experimental: (§1) The compounds of Examples 1 to 66 were diluted at various concentrations and transferred to a 384-well plate by 5 μl, and 10 μl of a mixed solution (2×) of Chk1 kinase (Thermo, P3040) or Chk2 kinase (Thermo, PV3367) and a substrate (Thermo, PV3508) was added to wells treated with the compounds. 5 μl of an ATP solution at a 4× concentration was added to the test well and reacted at room temperature for 1 hour. 20 μl of LanthaScreen Terbium-CREB p-Ser 133 antibody (Thermo, PV3542) was added to the reaction well and incubated at room temperature for 30 minutes. Conversion data was measured by an EnVision 2014 multi label reader (PerkinElmer). The activity for each concentration was determined by the ratio (FRET ratio=FR) of the value obtained by dividing the value at 520 nm by the value at 490 nm among the emission wavelength values for each wavelength (Em520/Em490). The results obtained for each concentration of the compounds were the average values obtained in two wells, and the IC50 values of the compounds were calculated using PRIZM software for analysis of the results. IC50 in Table 7 was graded as follows.

Chk2 kinase = Chk2 kinase (Homo sapiens (Human), UniProt O96017); assay: Chk2 kinase inhibitory activity (LanthaScreen TR-FRET); type: biochemical; conditions: graded
Chk2 kinase, sequence (O96017 whole entry): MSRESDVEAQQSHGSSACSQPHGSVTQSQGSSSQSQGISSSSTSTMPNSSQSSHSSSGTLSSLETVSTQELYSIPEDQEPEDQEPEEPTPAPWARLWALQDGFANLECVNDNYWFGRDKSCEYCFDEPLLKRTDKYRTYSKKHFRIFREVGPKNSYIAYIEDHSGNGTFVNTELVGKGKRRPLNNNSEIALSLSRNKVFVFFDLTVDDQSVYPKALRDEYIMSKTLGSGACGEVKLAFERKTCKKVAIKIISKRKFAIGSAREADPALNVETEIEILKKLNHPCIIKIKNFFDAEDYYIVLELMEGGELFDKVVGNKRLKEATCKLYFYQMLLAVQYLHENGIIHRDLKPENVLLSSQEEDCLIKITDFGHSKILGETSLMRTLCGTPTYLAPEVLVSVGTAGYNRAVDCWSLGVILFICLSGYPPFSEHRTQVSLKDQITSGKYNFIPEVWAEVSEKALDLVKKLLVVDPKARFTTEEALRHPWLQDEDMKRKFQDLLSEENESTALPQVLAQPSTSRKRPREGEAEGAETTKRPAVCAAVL
Experimental: as §1

[2] = Homo sapiens, MCF7, 72 h, graded, read-out: Celltiter glo analysis (IC50)
[3] = graded, read-out: Celltiter glo analysis (IC50)
[4] = Homo sapiens, MCF7, 72 h, alone, read-out: Administered alone (IC50)
[5] = combination with cisplatin, read-out: Administered in combination with cisplatin (IC50)
[6] = combination with doxorubicin, read-out: Administered in combination with doxorubicin (IC50)

Cn1cc(-c2ccc(F)c(-c3cnc(N)c(C(=O)NC4CCC5(CC5)NC4)n3)c2)cn1 (racemic) [Example 40, 3-amino-6-(2-fluoro-5-(1-methyl-1H-pyrazol-4-yl)phenyl)-N-(4-azaspiro[2.5]octan-6-yl) pyrazine-2-carboxamide]
IC50 [1, 2]: > 100000 nM | IC50 (Chk1 kinase): 10 to 100 nM | IC50 (Chk2 kinase): ≤ 10 nM

Cn1cc(-c2cccc(-c3cnc(N)c(C(=O)NC4CCC5(CC5)NC4)n3)c2)cn1 (racemic) [Example 41, 3-amino-6-(3-(1-methyl-1H-pyrazol-4-yl)phenyl)-N-(4-azaspiro[2.5]octan-6-yl)pyrazine-2-carboxamide]
IC50 [1, 2]: > 100000 nM | IC50 (Chk1 kinase): 10 to 100 nM | IC50 (Chk2 kinase): ≤ 10 nM

CC1(C)Cc2c(-c3cccc(-c4cnc(N)c(C(=O)N[C@H]5CCC6(CC6)NC5)n4)c3)cnn2C1 (stereo in doubt) [Example 65, 3-amino-6-(3-(5,5-dimethyl-5,6-dihydro-4H-pyrrolo[1,2-b]pyrazol-3-yl)phenyl)-N-(4-azaspiro[2.5]octan-6-yl)pyrazine-2-carboxamide]
IC50 [1, 3]: > 100000 nM | IC50 (Chk1 kinase): 10 to 100 nM | IC50 (Chk2 kinase): 10 to 100 nM

CC1(C)Cc2c(-c3ccc(F)c(-c4cnc(N)c(C(=O)N[C@H]5CCC6(CC6)NC5)n4)c3)cnn2C1 (stereo in doubt) [Example 66, 3-amino-6-(5-(5,5-dimethyl-5,6-dihydro-4H-pyrrolo[1,2-b]pyrazol-3-yl)-2-fluorophenyl)-N-(4-azaspiro[2.5]octan-6-yl)pyrazine-2-carboxamide]
IC50 [1, 3]: ≤ 10000 nM | IC50 (Chk1 kinase): > 1000 nM | IC50 (Chk2 kinase): 10 to 100 nM

Nc1ncc(-c2cc(-c3cnn(CC(F)(F)F)c3)ncc2F)nc1C(=O)N[C@@H]1CNC[C@@H](F)C1 [Example 2, 3-amino-6-(5-fluoro-2-(1-(2,2,2-trifluoroethyl)-1H-pyrazol-4-yl)pyridin-4-yl)-N-((3S,5S)-5-fluoropiperidin-3-yl)pyrazine-2-carboxamide]
IC50 [1, 2]: 10000 to 100000 nM | IC50 (Chk1 kinase): 100 to 1000 nM | IC50 (Chk2 kinase): 10 to 100 nM

Nc1ncc(-c2cc(-c3cnn(CC(F)(F)F)c3)ncc2F)nc1C(=O)N[C@@H]1CNCC(F)(F)C1 [Example 4, (S)-3-amino-N-(5,5-difluoropiperidin-3-yl)-6-(5-fluoro-2-(1-(2,2,2-trifluoroethyl)-1H-pyrazol-4-yl)pyridin-4-yl)pyrazine-2-carboxamide]
IC50 [1, 4]: 48100 nM | IC50 [1, 2]: 10000 to 100000 nM | IC50 [1, 5]: 3440 nM | IC50 [1, 6]: 670 nM | IC50 (Chk1 kinase): > 1000 nM | IC50 (Chk2 kinase): 10 to 100 nM

Nc1ncc(-c2ccnc(-c3cnn(CC(F)(F)F)c3)c2)nc1C(=O)N[C@@H]1CNCC[C@H]1O [Example 14, 3-amino-N-((3R,4R)-4-hydroxypiperidin-3-yl)-6-(2-(1-(2,2,2-trifluoroethyl)-1H-pyrazol-4-yl)pyridin-4-yl)pyrazine-2-carboxamide]
IC50 [1, 2]: > 100000 nM | IC50 (Chk1 kinase): 100 to 1000 nM | IC50 (Chk2 kinase): 10 to 100 nM

Nc1ncc(-c2ccnc(-c3cnn(CC(F)(F)F)c3)c2)nc1C(=O)N[C@@H]1CNC[C@@H](F)C1 [Example 15, 3-amino-N-((3S,5S)-5-fluoropiperidin-3-yl)-6-(2-(1-(2,2,2-trifluoroethyl)-1H-pyrazol-4-yl)pyridin-4-yl)pyrazine-2-carboxamide]
IC50 [1, 4]: 11800 nM | IC50 [1, 2]: ≤ 10000 nM | IC50 [1, 5]: 2270 nM | IC50 [1, 6]: 3050 nM | IC50 (Chk1 kinase): 100 to 1000 nM | IC50 (Chk2 kinase): ≤ 10 nM

Cn1cc(-c2cccc(-c3cnc(N)c(C(=O)N[C@H]4CCCNC4)n3)c2)cn1 [Example 16, (S)-3-amino-6-(3-(1-methyl-1H-pyrazol-4-yl)phenyl)-N-(piperidin-3-yl)pyrazine-2-carboxamide]
IC50 [1, 2]: 10000 to 100000 nM | IC50 (Chk1 kinase): 10 to 100 nM | IC50 (Chk2 kinase): ≤ 10 nM

Cn1cc(-c2cccc(-c3cnc(N)c(C(=O)N[C@@H]4CNC[C@@H](F)C4)n3)c2)cn1 [Example 17, 3-amino-N-((3S,5S)-5-fluoropiperidin-3-yl)-6-(3-(1-methyl-1H-pyrazol-4-yl)phenyl)pyrazine-2-carboxamide]
IC50 [1, 2]: 10000 to 100000 nM | IC50 (Chk1 kinase): 10 to 100 nM | IC50 (Chk2 kinase): ≤ 10 nM

Cn1cc(-c2ccc(F)c(-c3cnc(N)c(C(=O)N[C@H]4CCCNC4)n3)c2)cn1 [Example 18, (S)-3-amino-6-(2-fluoro-5-(1-methyl-1H-pyrazol-4-yl)phenyl)-N-(piperidin-3-yl)pyrazine-2-carboxamide]
IC50 [1, 2]: 10000 to 100000 nM | IC50 (Chk1 kinase): > 1000 nM | IC50 (Chk2 kinase): 10 to 100 nM

Cn1cc(-c2ccc(F)c(-c3cnc(N)c(C(=O)N[C@@H]4CNC[C@@H](F)C4)n3)c2)cn1 [Example 19, 3-amino-6-(2-fluoro-5-(1-methyl-1H-pyrazol-4-yl)phenyl)-N-((3S,5S)-5-fluoropiperidin-3-yl) pyrazine-2-carboxamide]
IC50 [1, 2]: 10000 to 100000 nM | IC50 (Chk1 kinase): 100 to 1000 nM | IC50 (Chk2 kinase): 10 to 100 nM

Nc1ncc(-c2ccnc(-c3cnn(C4CC4)c3)c2)nc1C(=O)N[C@H]1CCCNC1 [Example 20, (S)-3-amino-6-(2-(1-cyclopropyl-1H-pyrazol-4-yl)pyridin-4-yl)-N-(piperidin-3-yl)pyrazine-2-carboxamide]
IC50 [1, 2]: 10000 to 100000 nM | IC50 (Chk1 kinase): 10 to 100 nM | IC50 (Chk2 kinase): 10 to 100 nM

CC(C)(O)Cn1cc(-c2cc(-c3cnc(N)c(C(=O)N[C@@H]4CNC[C@@H](F)C4)n3)ccn2)cn1 [Example 34, 3-amino-N-((3S,5S)-5-fluoropiperidin-3-yl)-6-(2-(1-(2-hydroxy-2-methylpropyl)-1H-pyrazol-4-yl)pyridin-4-yl)pyrazine-2-carboxamide]
IC50 (Chk1 kinase): 10 to 100 nM

CC1(C)Cc2c(-c3cc(-c4cnc(N)c(C(=O)N[C@@H]5CNC[C@H]5O)n4)ccn3)cnn2C1 [Example 54, 3-amino-6-(2-(5,5-dimethyl-5,6-dihydro-4H-pyrrolo[1,2-b]pyrazol-3-yl)pyridin-4-yl)-N-((3R,4R)-4-hydroxypyrrolidin-3-yl)pyrazine-2-carboxamide]
IC50 [1, 2]: > 100000 nM | IC50 (Chk2 kinase): ≤ 10 nM

CC1(C)Cc2c(-c3ccc(O)c(-c4cnc(N)c(C(=O)N[C@@H]5CNC[C@@H](F)C5)n4)c3)cnn2C1 [Example 55, 3-amino-6-(5-(5,5-dimethyl-5,6-dihydro-4H-pyrrolo[1,2-b]pyrazol-3-yl)-2-hydroxyphenyl)-N-((3S,5S)-5-fluoropiperidin-3-yl)pyrazine-2-carboxamide]
IC50 [1, 2]: 10000 to 100000 nM | IC50 (Chk2 kinase): ≤ 10 nM

CC1(C)Cc2c(-c3ccc(O)c(-c4cnc(N)c(C(=O)N[C@H]5CCC6(CC6)NC5)n4)c3)cnn2C1 [Example 56, (S)-3-amino-6-(5-(5,5-dimethyl-5,6-dihydro-4H-pyrrolo[1,2-b]pyrazol-3-yl)-2-hydroxyphenyl)-N-(4-azaspiro[2.5]octan-6-yl)pyrazine-2-carboxamide]
IC50 [1, 2]: 10000 to 100000 nM | IC50 (Chk2 kinase): ≤ 10 nM

CC1(C)Cc2c(-c3ccc(O)c(-c4cnc(N)c(C(=O)N[C@@H]5CNC[C@H]5O)n4)c3)cnn2C1 [Example 57, 3-amino-6-(5-(5,5-dimethyl-5,6-dihydro-4H-pyrrolo[1,2-b]pyrazol-3-yl)-2-hydroxyphenyl)-N-((3R,4R)-4-hydroxypyrrolidin-3-yl)pyrazine-2-carboxamide]
IC50 [1, 2]: > 100000 nM | IC50 (Chk2 kinase): 10 to 100 nM

CC1(C)Cc2c(-c3cccc(-c4cnc(N)c(C(=O)N[C@@H]5CNCCC5(F)F)n4)c3)cnn2C1 [Example 58, 3-amino-N-(4,4-difluoropiperidin-3-y)-6-(3-(5,5-dimethyl-5,6-dihydro-4H-pyrrolo[1,2-b]pyrazol-3-yl)phenyl)pyrazine-2-carboxamide]
IC50 [1, 2]: 10000 to 100000 nM | IC50 (Chk2 kinase): ≤ 10 nM

CC1(C)Cc2c(-c3cccc(-c4cnc(N)c(C(=O)N[C@@H]5CNC[C@H]5O)n4)c3)cnn2C1 [Example 60, 3-amino-6-(3-(5,5-dimethyl-5,6-dihydro-4H-pyrrolo[1,2-b]pyrazol-3-yl)phenyl)-N-((3R,4R)-4-hydroxypyrrolidin-3-yl)pyrazine-2-carboxamide]
IC50 [1, 2]: > 100000 nM | IC50 (Chk2 kinase): ≤ 10 nM

CC1(C)Cc2c(-c3cccc(-c4cnc(N)c(C(=O)N[C@H]5CNC[C@@H]5F)n4)c3)cnn2C1 [Example 62, 3-amino-6-(3-(5,5-dimethyl-5,6-dihydro-4H-pyrrolo[1,2-b]pyrazol-3-yl)phenyl)-N-((3S,4S)-4-fluoropyrrolidin-3-yl) pyrazine-2-carboxamide]
IC50 [1, 2]: 10000 to 100000 nM | IC50 (Chk2 kinase): 10 to 100 nM

CC1(C)Cc2c(-c3nccc(-c4cnc(N)c(C(=O)N[C@H]5CCC6(CC6)NC5)n4)n3)cnn2C1 [Example 63, (S)-3-amino-6-(2-(5,5-dimethyl-5,6-dihydro-4H-pyrrolo[1,2-b]pyrazol-3-yl)pyrimidin-4-yl)-N-(4-azaspiro[2.5]octan-6-yl) pyrazine-2-carboxamide]
IC50 [1, 2]: 10000 to 100000 nM | IC50 (Chk2 kinase): ≤ 10 nM
